# Experimental data: the supplement of paper PMC10307832
# Experiments:
# Assay in all cases: relative viability (nuclei count vs DMSO), 5 days (fraction); higher = more cells survive
# QS11 + Linsitinib = compound: C1CC2=C(C1)C=C(C=C2)OC3=NC(=C4C(=N3)N(C=N4)CC5=CC=C(C=C5)C6=CC=CC=C6)N[C@@H](CC7=CC=CC=C7)CO [QS11] + C[C@]1(O)C[C@@H](c2nc(-c3ccc4ccc(-c5ccccc5)nc4c3)c3c(N)nccn32)C1 [Linsitinib] (partner 1 µM)
# Method in brief: (§1)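 Lung cancer cell lines in 1536-well plates got either a single drug or a fixed anchor-drug dose together with five library-drug doses (not always all listed) in √10 steps, by pin tool, on the day after seeding. Nuclei were counted after 5 days, and relative viability is the treated-to-vehicle ratio of nuclei counts. Values are medians of duplicate plates.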
# AZ628 + Bortezomib = compound: CC1=C(C=C(C=C1)NC(=O)C2=CC(=CC=C2)C(C)(C)C#N)NC3=CC4=C(C=C3)N=CN(C4=O)C [AZ628] + CC(C)C[C@H](NC(=O)[C@H](Cc1ccccc1)NC(=O)c1cnccn1)B(O)O [Bortezomib] (partner 0.002 µM)
# Method in brief: as §1
# QS11 + Dasatinib = compound: C1CC2=C(C1)C=C(C=C2)OC3=NC(=C4C(=N3)N(C=N4)CC5=CC=C(C=C5)C6=CC=CC=C6)N[C@@H](CC7=CC=CC=C7)CO [QS11] + Cc1nc(Nc2ncc(C(=O)Nc3c(C)cccc3Cl)s2)cc(N2CCN(CCO)CC2)n1 [Dasatinib] (partner 0.075 µM)
# Method in brief: as §1
# QS11 + Phenformin = compound: C1CC2=C(C1)C=C(C=C2)OC3=NC(=C4C(=N3)N(C=N4)CC5=CC=C(C=C5)C6=CC=CC=C6)N[C@@H](CC7=CC=CC=C7)CO [QS11] + N=C(N)NC(=N)NCCc1ccccc1 [Phenformin] (partner 250 µM)
# Method in brief: as §1
cell line,measurement,setting,value
LCLC-97TM1,relative viability,QS11 + Linsitinib; first compound 0.08 µM,0.15
same,relative viability,QS11 + Linsitinib; first compound 0.253 µM,0.17
same,relative viability,QS11 + Linsitinib; first compound 0.8 µM,0.233
same,relative viability,QS11 + Linsitinib; first compound 2.53 µM,0.237
same,relative viability,QS11 + Linsitinib; first compound 8 µM,0.293
same,relative viability,AZ628 + Bortezomib; first compound 0.08 µM,0.643
same,relative viability,AZ628 + Bortezomib; first compound 0.253 µM,0.381
same,relative viability,AZ628 + Bortezomib; first compound 0.8 µM,0.199
same,relative viability,AZ628 + Bortezomib; first compound 2.53 µM,0.522
same,relative viability,AZ628 + Bortezomib; first compound 8 µM,0.108
same,relative viability,QS11 + Dasatinib; first compound 0.08 µM,0.777
same,relative viability,QS11 + Dasatinib; first compound 0.253 µM,0.932
same,relative viability,QS11 + Dasatinib; first compound 2.53 µM,0.868
same,relative viability,QS11 + Dasatinib; first compound 8 µM,1.01
same,relative viability,QS11 + Phenformin; first compound 0.08 µM,0.371
same,relative viability,QS11 + Phenformin; first compound 0.253 µM,0.431
same,relative viability,QS11 + Phenformin; first compound 2.53 µM,0.354
same,relative viability,QS11 + Phenformin; first compound 8 µM,0.294
